ChEMBL document CHEMBL4043252, “Discovery and structure-based design of 4,6-diaminonicotinamides as potent and selective IRAK4 inhibitors” (Bioorg Med Chem Lett, 2017)

Legend:
[1] = in vitro; conditions: mouse, liver microsomes
[2] = tested on: Liver; conditions: human, microsomes
[3] = physchem; conditions: PAMPA, pH 7.4

Structure (SMILES) | remaining at 10 min [1] | Stability [2] | Papp [3]
CNC(=O)c1cnc(Nc2ccc3ncsc3c2)cc1N[C@@H](c1ccccc1)[C@H](O)CO | 21 to 31% | 90% | 1.9 ×10⁻⁶ cm/s
CNC(=O)c1cnc(Nc2ccc(OC)c(F)c2)cc1N[C@@H](c1ccccc1)[C@H](O)CO | 20% | 80% | 6.3 ×10⁻⁶ cm/s
